# From PubChem BioAssay (NCI)
#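 Assay format: 96-well plates, 48-hour exposure. GI50 is the concentration that inhibits growth by half. TGI: total growth inhibition.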
# What was measured:
# Test in all cases: NCI tumour cell line growth inhibition, 48 h
# SR leukemia = system: SR leukemia
# KM12 colon = system: KM12 colon
# CCRF-CEM leukemia = system: CCRF-CEM leukemia
# SK-MEL-28 melanoma = system: SK-MEL-28 melanoma
# SNB-75 CNS = system: SNB-75 CNS
# ACHN renal = system: ACHN renal
# UACC-257 melanoma = system: UACC-257 melanoma
# PC-3 prostate = system: PC-3 prostate
# A549 NSCLC = system: A549 NSCLC
# A498 renal = system: A498 renal
# RXF 393 renal = system: RXF 393 renal
# K-562 leukemia = system: K-562 leukemia
# NCI-H23 lung = system: NCI-H23 lung
# OVCAR-5 ovarian = system: OVCAR-5 ovarian
# SK-OV-3 ovarian = system: SK-OV-3 ovarian
# LOX IMVI melanoma = system: LOX IMVI melanoma
# OVCAR-3 ovarian = system: OVCAR-3 ovarian
# SK-MEL-2 melanoma = system: SK-MEL-2 melanoma
# MCF7 breast = system: MCF7 breast
# HL-60(TB) leukemia = system: HL-60(TB) leukemia
# NCI-H226 lung = system: NCI-H226 lung
# HCC-2998 colon = system: HCC-2998 colon
# RPMI-8226 leukemia = system: RPMI-8226 leukemia
# SN12C renal = system: SN12C renal
# MDA-MB-231 breast = system: MDA-MB-231 breast
# SK-MEL-5 melanoma = system: SK-MEL-5 melanoma
# T-47D breast = system: T-47D breast
# NCI/ADR-RES ovarian = system: NCI/ADR-RES ovarian
# M14 melanoma = system: M14 melanoma
# SW-620 colon = system: SW-620 colon
# SF-268 CNS = system: SF-268 CNS
# DU-145 prostate = system: DU-145 prostate
# COLO 205 colon = system: COLO 205 colon
# NCI-H522 lung = system: NCI-H522 lung
# HCT-15 colon = system: HCT-15 colon
# HOP-62 NSCLC = system: HOP-62 NSCLC
# UACC-62 melanoma = system: UACC-62 melanoma
# NCI-H460 lung = system: NCI-H460 lung
# HCT-116 colon = system: HCT-116 colon
# TK-10 renal = system: TK-10 renal
# 786-0 renal = system: 786-0 renal
# SF-539 CNS = system: SF-539 CNS
# OVCAR-8 ovarian = system: OVCAR-8 ovarian
# SNB-19 CNS = system: SNB-19 CNS
# U251 CNS = system: U251 CNS
# BT-549 breast = system: BT-549 breast
# HS 578T breast = system: HS 578T breast
# OVCAR-4 ovarian = system: OVCAR-4 ovarian
# MOLT-4 leukemia = system: MOLT-4 leukemia
smiles,measurement,setting,value
O=C1NC(=O)C(=C/C=C/c2ccccc2)C(=O)N1,GI50,SR leukemia,0.716 µM
same,TGI,SR leukemia,> 100 µM
same,GI50,KM12 colon,1.74 µM
same,TGI,KM12 colon,3.26 µM
same,GI50,CCRF-CEM leukemia,3.57 µM
same,TGI,CCRF-CEM leukemia,> 100 µM
same,GI50,SK-MEL-28 melanoma,1.91 µM
same,TGI,SK-MEL-28 melanoma,3.59 µM
same,GI50,SNB-75 CNS,6 µM
same,TGI,SNB-75 CNS,19.4 µM
same,GI50,ACHN renal,2.32 µM
same,TGI,ACHN renal,5.65 µM
same,GI50,UACC-257 melanoma,2.24 µM
same,TGI,UACC-257 melanoma,7.34 µM
same,GI50,PC-3 prostate,4.59 µM
same,TGI,PC-3 prostate,23.4 µM
same,GI50,A549 NSCLC,7.06 µM
same,TGI,A549 NSCLC,28 µM
same,GI50,A498 renal,20 µM
same,TGI,A498 renal,34.6 µM
same,GI50,RXF 393 renal,1.39 µM
same,TGI,RXF 393 renal,2.71 µM
same,GI50,K-562 leukemia,4.94 µM
same,TGI,K-562 leukemia,70 µM
same,GI50,NCI-H23 lung,2.16 µM
same,TGI,NCI-H23 lung,5.29 µM
same,GI50,OVCAR-5 ovarian,5.33 µM
same,TGI,OVCAR-5 ovarian,23 µM
same,GI50,SK-OV-3 ovarian,16.5 µM
same,TGI,SK-OV-3 ovarian,30.5 µM
same,GI50,LOX IMVI melanoma,1.55 µM
same,TGI,LOX IMVI melanoma,3.3 µM
same,GI50,OVCAR-3 ovarian,1.53 µM
same,TGI,OVCAR-3 ovarian,3.97 µM
same,GI50,SK-MEL-2 melanoma,3.65 µM
same,TGI,SK-MEL-2 melanoma,16.2 µM
same,GI50,MCF7 breast,2.97 µM
same,TGI,MCF7 breast,20.1 µM
same,GI50,HL-60(TB) leukemia,2.91 µM
same,TGI,HL-60(TB) leukemia,8.08 µM
same,GI50,NCI-H226 lung,2.81 µM
same,TGI,NCI-H226 lung,7.25 µM
same,GI50,HCC-2998 colon,2.2 µM
same,TGI,HCC-2998 colon,4.1 µM
same,GI50,RPMI-8226 leukemia,3.59 µM
same,TGI,RPMI-8226 leukemia,10.2 µM
same,GI50,SN12C renal,3.27 µM
same,TGI,SN12C renal,19.5 µM
same,GI50,MDA-MB-231 breast,3.73 µM
same,TGI,MDA-MB-231 breast,16 µM
same,GI50,SK-MEL-5 melanoma,2.24 µM
same,TGI,SK-MEL-5 melanoma,4.94 µM
same,GI50,T-47D breast,11.6 µM
same,TGI,T-47D breast,53 µM
same,GI50,NCI/ADR-RES ovarian,3.78 µM
same,TGI,NCI/ADR-RES ovarian,16.7 µM
same,GI50,M14 melanoma,2.04 µM
same,TGI,M14 melanoma,4.73 µM
same,GI50,SW-620 colon,1.79 µM
same,TGI,SW-620 colon,4.22 µM
same,GI50,SF-268 CNS,3.2 µM
same,TGI,SF-268 CNS,10.3 µM
same,GI50,DU-145 prostate,2.13 µM
same,TGI,DU-145 prostate,4.87 µM
same,GI50,COLO 205 colon,2.33 µM
same,TGI,COLO 205 colon,4.97 µM
same,GI50,NCI-H522 lung,2.36 µM
same,TGI,NCI-H522 lung,7.15 µM
same,GI50,HCT-15 colon,2.2 µM
same,TGI,HCT-15 colon,7.06 µM
same,GI50,HOP-62 NSCLC,12 µM
same,TGI,HOP-62 NSCLC,25.5 µM
same,GI50,UACC-62 melanoma,1.88 µM
same,TGI,UACC-62 melanoma,4.5 µM
same,GI50,NCI-H460 lung,2.78 µM
same,TGI,NCI-H460 lung,7.31 µM
same,GI50,HCT-116 colon,1.71 µM
same,TGI,HCT-116 colon,3.28 µM
same,GI50,TK-10 renal,5.62 µM
same,TGI,TK-10 renal,18.3 µM
same,GI50,786-0 renal,3.11 µM
same,TGI,786-0 renal,11 µM
same,GI50,SF-539 CNS,2.33 µM
same,TGI,SF-539 CNS,6.3 µM
same,GI50,OVCAR-8 ovarian,3.01 µM
same,TGI,OVCAR-8 ovarian,17.8 µM
same,GI50,SNB-19 CNS,5.14 µM
same,TGI,SNB-19 CNS,24.7 µM
same,GI50,U251 CNS,2.5 µM
same,TGI,U251 CNS,10.3 µM
same,GI50,BT-549 breast,2.32 µM
same,TGI,BT-549 breast,6.79 µM
same,GI50,HS 578T breast,4.81 µM
same,TGI,HS 578T breast,50.4 µM
same,GI50,OVCAR-4 ovarian,5.37 µM
same,TGI,OVCAR-4 ovarian,17.2 µM
same,GI50,MOLT-4 leukemia,4.12 µM
same,TGI,MOLT-4 leukemia,25.1 µM
CCCCCCCCCCCCC[C@H](O)C[C@H](O)[C@H](C)N,GI50,ACHN renal,1.86 µM
same,TGI,ACHN renal,3.3 µM
same,GI50,A498 renal,6.19 µM
same,TGI,A498 renal,47.1 µM
same,GI50,OVCAR-5 ovarian,1.95 µM
same,TGI,OVCAR-5 ovarian,3.42 µM
same,GI50,SK-OV-3 ovarian,14.6 µM
same,TGI,SK-OV-3 ovarian,40.9 µM
same,GI50,SN12C renal,1.92 µM
same,TGI,SN12C renal,3.38 µM
same,GI50,HCT-15 colon,1.65 µM
same,TGI,HCT-15 colon,3.11 µM
same,GI50,UACC-62 melanoma,1.87 µM
same,TGI,UACC-62 melanoma,3.27 µM
same,GI50,NCI-H460 lung,1.63 µM
same,TGI,NCI-H460 lung,3.87 µM
same,GI50,OVCAR-8 ovarian,3.49 µM
same,TGI,OVCAR-8 ovarian,> 100 µM
same,GI50,OVCAR-4 ovarian,2.25 µM
same,TGI,OVCAR-4 ovarian,5.52 µM
